Columns and labels:
[1] = tested on: NCI-H2228 cell line; assay: CellTiter-Glo cell proliferation inhibition on NCI-H2228 cell line; format: cell-based; conditions: Homo sapiens, NCI-H2228, 96 h, NCI-H2228 cells, 5000 cells/well, 4 days drug treatment
In short: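 NCI-H2228 cells, 5000/well in RPMI-1640 + 10% FBS, treated with compounds 2 h after seeding (0.5% DMSO final) for 4 days at 37° C. Viability by CellTiter-Glo luminescence; inhibition relative to DMSO control, IC50 from curve fit.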

[2] = biological target: T1, Wild Type ALK kinase (Homo sapiens, UniProt Q9UM73); assay: HTRF KinEASE-TK assay, inhibitory activity on wild type ALK kinase; format: biochemical; conditions: wild type ALK 1 ng/μl, substrate 1 μM, 30° C. 35 minutes, read-out: Inhibition on ALK kinases (wildtype), IC50
T1 construct: purchased Sino-US Crown Bioscience, Inc. batch number ALK 20110607
T1 sequence (Q9UM73 19-1620): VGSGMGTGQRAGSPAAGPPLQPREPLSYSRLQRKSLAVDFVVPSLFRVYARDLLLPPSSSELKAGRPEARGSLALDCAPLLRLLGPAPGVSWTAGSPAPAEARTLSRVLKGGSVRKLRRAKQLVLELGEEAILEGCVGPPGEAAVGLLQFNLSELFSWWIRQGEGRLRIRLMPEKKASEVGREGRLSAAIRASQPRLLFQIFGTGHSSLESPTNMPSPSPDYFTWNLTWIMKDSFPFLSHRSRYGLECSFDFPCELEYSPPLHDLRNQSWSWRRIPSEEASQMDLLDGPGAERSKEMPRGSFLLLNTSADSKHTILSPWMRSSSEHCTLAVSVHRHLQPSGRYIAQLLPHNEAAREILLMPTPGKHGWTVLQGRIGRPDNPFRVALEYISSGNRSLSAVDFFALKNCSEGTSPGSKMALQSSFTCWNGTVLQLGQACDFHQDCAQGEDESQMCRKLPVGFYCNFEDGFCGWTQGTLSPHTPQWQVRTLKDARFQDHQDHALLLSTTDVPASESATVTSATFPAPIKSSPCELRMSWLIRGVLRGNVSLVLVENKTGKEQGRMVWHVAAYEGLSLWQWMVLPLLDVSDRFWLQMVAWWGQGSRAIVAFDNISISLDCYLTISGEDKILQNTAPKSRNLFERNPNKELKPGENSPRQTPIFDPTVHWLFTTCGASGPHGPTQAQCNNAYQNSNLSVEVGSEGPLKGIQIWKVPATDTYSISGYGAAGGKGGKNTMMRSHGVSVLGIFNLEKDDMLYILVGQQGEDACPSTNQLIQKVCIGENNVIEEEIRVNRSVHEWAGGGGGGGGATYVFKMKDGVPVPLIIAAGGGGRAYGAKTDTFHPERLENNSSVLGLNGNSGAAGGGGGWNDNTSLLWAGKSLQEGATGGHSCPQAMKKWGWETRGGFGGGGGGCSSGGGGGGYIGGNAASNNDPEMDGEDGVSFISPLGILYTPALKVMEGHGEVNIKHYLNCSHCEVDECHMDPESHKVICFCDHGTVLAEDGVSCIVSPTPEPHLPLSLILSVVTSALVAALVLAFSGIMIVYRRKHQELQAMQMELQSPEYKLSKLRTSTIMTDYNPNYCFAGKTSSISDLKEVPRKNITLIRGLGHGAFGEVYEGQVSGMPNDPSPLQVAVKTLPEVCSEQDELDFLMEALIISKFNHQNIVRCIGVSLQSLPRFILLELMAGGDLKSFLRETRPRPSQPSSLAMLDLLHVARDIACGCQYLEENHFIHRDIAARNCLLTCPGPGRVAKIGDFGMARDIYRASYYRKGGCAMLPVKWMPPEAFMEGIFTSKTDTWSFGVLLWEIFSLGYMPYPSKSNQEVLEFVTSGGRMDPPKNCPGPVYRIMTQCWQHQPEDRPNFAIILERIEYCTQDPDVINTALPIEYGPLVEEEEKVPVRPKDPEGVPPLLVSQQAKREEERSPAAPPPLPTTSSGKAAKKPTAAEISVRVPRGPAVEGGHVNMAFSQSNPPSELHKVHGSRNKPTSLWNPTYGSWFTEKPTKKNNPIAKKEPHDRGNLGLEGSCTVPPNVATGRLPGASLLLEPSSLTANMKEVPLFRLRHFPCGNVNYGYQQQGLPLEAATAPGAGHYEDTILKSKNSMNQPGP
Source text: 1. Inhibitory Activities of the Compounds of the Present Invention on Wild Type ALK Kinases
? experimental method ? HTRF KinEASE™-TK Assay kit from Cisbio company was used to detect inhibitory activities of the compounds on wildtype ALK kinases (wild type ALK kinases).
? instrument ? Envision 2104 plate reader from PerKinElmer company.
? experiment material ? HTRF KinEASE™-TK Assay Kit (Cisbio company, catalog No. 62TK0PEC); Wild Type ALK kinase (produced by Sino-US Crown Bioscience, Inc., batch number ALK 20110607); DTT (Gibco BRL company, catalog No. 15508-012); MgCl2 (Sigma Aldrich company, catalog No. M-2670); ATP (Sigma Aldrich company, catalog No. A-7699); DMSO (AMRESCO company, catalog No. 0231); EDTA (AMRESCO company, catalog No. 0105); 96 wells plates (for diluting compounds) (CITOTEST company, catalog No. Ref36020096D); OptiPlate™-384 (White), PerkinElmer company, catalog No. P12-004)
? experimental condition ? Compounds (the final concentration of DMSO was 1%), the reaction substrate (the final concentration was 1 μM), ATP (the final concentration was […]), and Wildtype ALK kinases (the final concentration was 1 ng/μl) were mixed respectively in a final volume of 10 μl reaction system (containing 5 mM MgCl2, 1× Kinase buffer, and 1 mM DTT). The mixture was reacted at 30° C. for 35 minutes after shaking for 30 seconds. After completion of the reaction, each well was added with 5 μl Sa-XL665 and 5 μl TK Antibody-Eu(K), and placed in the dark for 60 minutes to end the reaction after uniform mixing. The data was read from PerkinElmer EnVision plate reader ([…]), the 665/615 ratio was calculated, and the data was analyzed.
? tested samples ? Compounds from the examples.
? data analysis ? Minimum 665/615 ratio (Rmin, 665/615 ratio under the condition that 10.4 μM positive control drug LDK-378 was added)
Maximum 665/615 ratio (Rmax, 665/615 ratio under the condition that no compound was added)
Tested 665/615 ratio (Rcompound, 665/615 ratio under the condition that a given concentration of compound was added) Inhibition rate (%)=[1−(Rcompound−Rmin)/(Rmax−Rmin)]×100
? data processing ? IC50 of compounds was calculated by using XLfit program in Excel.

Compound	IC50 [1] [nM]	IC50 [2] [nM]
Cc1cc(Nc2ncc(Cl)c(Nc3cn(C)nc3S(=O)(=O)C(C)C)n2)c(OC(C)C)cc1C1CNC1 [Final product 4]	288	4
Cc1cc(Nc2ncc(Cl)c(Nc3cn(C4CC4)nc3S(=O)(=O)C(C)C)n2)c(OC(C)C)cc1C1CCNCC1 [Final product 5]	248	6
Cc1cc(Nc2ncc(Cl)c(Nc3cn(C)nc3S(=O)(=O)CC(C)C)n2)c(OC(C)C)cc1C1CCNCC1 [Final product 6]	193	3
CCC(C)S(=O)(=O)c1nn(C)cc1Nc1nc(Nc2cc(C)c(C3CCNCC3)cc2OC(C)C)ncc1Cl (stereo not drawn) [Final product 7]	224	8
Cc1cc(Nc2ncc(Cl)c(Nc3cn(C)nc3S(=O)(=O)C(C)C)n2)c(OC(CF)CF)cc1C1CCNCC1 [Final product 8]	562	9
CC(C)S(=O)(=O)c1nn(C)cc1Nc1nc(Nc2ccc(C3CCNCC3)cc2OC(F)(F)F)ncc1Cl [Final product 9]	652	16
Cc1cc(Nc2ncc(Cl)c(Nc3cn(C)nc3S(=O)(=O)C(C)C)n2)c(OC(F)(F)F)cc1C1CCNCC1 [Final product 10]	188	7
Cc1cc(Nc2ncc(Cl)c(Nc3cn(C)nc3S(=O)(=O)C(C)C)n2)c(C(F)(F)F)cc1C1CCNCC1 [Final product 11]	641	22
Cc1cc(Nc2ncc(Cl)c(Nc3cn(C)nc3S(=O)(=O)C(C)C)n2)c(OCC2CC2)cc1C1CCNCC1 [Final product 12]	262	10
CC(C)S(=O)(=O)c1nn(C)cc1Nc1nc(Nc2ccc(C3=CCNCC3)cc2OC2CC2)ncc1Cl [Final product 14]	168	4
CC(C)CS(=O)(=O)c1nn(C)cc1Nc1nc(Nc2ccc(C3CCNCC3)cc2OC2CC2)ncc1Cl [Final product 17]	278	11
CC(C)S(=O)(=O)c1nn(C)cc1Nc1nc(Nc2cc(F)c(C3CCNC3)cc2OC2CC2)ncc1Cl (stereo not drawn) [Final product 20]	384	9
Cc1cc(Nc2ncc(Cl)c(Nc3cn(C)nc3S(=O)(=O)C(C)C)n2)c(OC2CC2)cc1C1=CCNCC1 [Final product 25]	190	2
Cc1cc(Nc2ncc(Cl)c(Nc3cn(C)nc3S(=O)(=O)C(C)C)n2)c(OC2CC2)cc1C1CCNC1 (stereo not drawn) [Final product 26]	217	5
Cc1cc(Nc2ncc(Cl)c(Nc3cn(C4CC4)nc3S(=O)(=O)C(C)C)n2)c(OC2CC2)cc1C1CCNCC1 [Final product 27]	168	3
Cc1cc(Nc2ncc(Cl)c(Nc3cn(C)nc3S(=O)(=O)C(C)C)n2)c(OC(F)(F)F)cc1C1CCN(C)CC1 [Final product 31]	374	6
Cc1cc(Nc2ncc(Cl)c(Nc3cn(C)nc3S(=O)(=O)C(C)C)n2)c(C(F)(F)F)cc1C1CCN(C)CC1 [Final product 32]	1080	22
Cc1cc(Nc2ncc(Cl)c(Nc3cn(C)nc3S(=O)(=O)C(C)C)n2)c(OC(CF)CF)cc1C1CCN(C)CC1 [Final product 34]	403	10
Cc1cc(Nc2ncc(Cl)c(Nc3cn(C)nc3S(=O)(=O)CC(C)C)n2)c(OC(C)C)cc1C1CN(C)C1 [Final product 36]	326	8
Cc1cc(Nc2ncc(Cl)c(Nc3cn(C)nc3S(=O)(=O)C(C)C)n2)c(OCC2CC2)cc1C1CCN(C)CC1 [Final product 39]	226	15
Cc1cc(Nc2ncc(Cl)c(Nc3cn(C)nc3S(=O)(=O)C(C)C)n2)c(OC2CC2)cc1C1CCOCC1 [Final product 107]	174	9

Further compounds by falling IC50 [1], results first:

IC50 [1] [nM]	IC50 [2] [nM]	Compound
165	8	CC(C)S(=O)(=O)c1nn(C)cc1Nc1nc(Nc2cc(C#N)c(C3CCN(C)CC3)cc2OC2CC2)ncc1Cl [Final product 49]
159	4	CC(C)S(=O)(=O)c1nn(C)cc1Nc1nc(Nc2cc(C#N)c(C3CCNCC3)cc2OC2CC2)ncc1Cl [Final product 29]
157	2	CC(C)CS(=O)(=O)c1nn(C)cc1Nc1nc(Nc2ccc(C3CCNC3)cc2OC2CC2)ncc1Cl (stereo not drawn) [Final product 18]
146	11	CC(C)S(=O)(=O)c1nn(C2CC2)cc1Nc1nc(Nc2ccc(C3CCN(C)CC3)cc2OC(F)(F)F)ncc1Cl [Final product 38]
135	4	CC(C)S(=O)(=O)c1nn(C)cc1Nc1nc(Nc2cc(F)c(C3CCN(C)C3)cc2OC2CC2)ncc1Cl (stereo not drawn) [Final product 45]
134	9	Cc1cc(Nc2ncc(Cl)c(Nc3cn(C)nc3S(=O)(=O)CC(C)C)n2)c(OC2CC2)cc1C1CCNCC1 [Final product 28]
131	7	Cc1cc(Nc2ncc(Cl)c(Nc3cn(C)nc3S(=O)(=O)C(C)C)n2)c(OC(C)C)cc1C1CCN(C)C1 (stereo not drawn) [Final product 37]
127	2	CC(C)S(=O)(=O)c1nn(C2CC2)cc1Nc1nc(Nc2cc(F)c(C3CCN(C)CC3)cc2OC2CC2)ncc1Cl [Final product 46]
125	5	CC(C)CS(=O)(=O)c1nn(C)cc1Nc1nc(Nc2ccc(C3CCN(C)CC3)cc2OC2CC2)ncc1Cl [Final product 43]
122	2	Cc1cc(Nc2ncc(Cl)c(Nc3cn(C)nc3S(=O)(=O)C(C)C)n2)c(OC2CC2)cc1C1CCNCC1 [Final product 24]
115	2	CC(C)S(=O)(=O)c1nn(C)cc1Nc1nc(Nc2cc(Cl)c(C3CCNCC3)cc2OC2CC2)ncc1Cl [Final product 22]
115	2	CC(C)S(=O)(=O)c1nn(C2CC2)cc1Nc1nc(Nc2cc(Cl)c(C3CCN(C)CC3)cc2OC2CC2)ncc1Cl [Final product 48]
107	4	CC(C)S(=O)(=O)c1nn(C2CC2)cc1Nc1nc(Nc2cc(Cl)c(C3CCNCC3)cc2OC2CC2)ncc1Cl [Final product 23]
103	4	CC(C)S(=O)(=O)c1nn(C)cc1Nc1nc(Nc2cc(Cl)c(C3CCN(C)CC3)cc2OC2CC2)ncc1Cl [Final product 47]
93	7	CC(C)S(=O)(=O)c1nn(C)cc1Nc1nc(Nc2ccc(C3CCN(C)CC3)cc2OC(F)(F)F)ncc1Cl [Final product 30]
86	5	Cc1cc(Nc2ncc(Cl)c(Nc3cn(C)nc3S(=O)(=O)C(C)C)n2)c(OC2CC2)cc1C1=CCN(C)CC1 [Final product 50]
62	1	CC(C)S(=O)(=O)c1nn(C2CC2)cc1Nc1nc(Nc2cc(F)c(C3CCNCC3)cc2OC2CC2)ncc1Cl [Final product 21]
58	3	CC(C)S(=O)(=O)c1nn(C)cc1Nc1nc(Nc2ccc(C3CCNCC3)cc2OC2CC2)ncc1Cl [Final product 13]
48	3	CC(C)S(=O)(=O)c1nn(C)cc1Nc1nc(Nc2ccc(C3CCNC3)cc2OC2CC2)ncc1Cl (stereo not drawn) [Final product 15]
39	4	CC(C)S(=O)(=O)c1nn(C2CC2)cc1Nc1nc(Nc2ccc(C3CCNCC3)cc2OC2CC2)ncc1Cl [Final product 16]
36	3	CC(C)S(=O)(=O)c1nn(C)cc1Nc1nc(Nc2ccc(C3CCN(C)CC3)cc2OC2CC2)ncc1Cl [Final product 40]
33	1	CC(C)S(=O)(=O)c1nn(C)cc1Nc1nc(Nc2ccc(C3CCN(C)C3)cc2OC2CC2)ncc1Cl (stereo not drawn) [Final product 41]
29	1	CC(C)S(=O)(=O)c1nn(C2CC2)cc1Nc1nc(Nc2ccc(C3CCN(C)CC3)cc2OC2CC2)ncc1Cl [Final product 42]
26	2	Cc1cc(Nc2ncc(Cl)c(Nc3cn(C)nc3S(=O)(=O)C(C)C)n2)c(OC2CC2)cc1C1CC(C)N(C)C(C)C1 (stereo not drawn) [Final product 95]
